Reference: ChEMBL document CHEMBL1201862, “PubChem BioAssay data set” (2004)
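Tested at 5 concentrations; 48 h exposure; 96-well plates; endpoints linearly interpolated, else capped at highest concentration. GI50 marks 50% less growth.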 Active and inactive are the calls of the source. Cut-off read from the data, not from the text of the source: active = GI50 up to about 1.1 µM and inactive = higher.

Assays:
Assay in all cases: NCI-60 cell line screen, 48 h
OVCAR-8 = tested on: OVCAR-8
TK-10 = tested on: TK-10
Malme-3M = tested on: Malme-3M
NCI-H460 = tested on: NCI-H460
SF-539 = tested on: SF-539
MDA-N = tested on: MDA-N
A549 = tested on: A549
SK-MEL-5 = tested on: SK-MEL-5
HCT-15 = tested on: HCT-15
HCT-116 = tested on: HCT-116
SW-620 = tested on: SW-620
UO-31 = tested on: UO-31
M14 = tested on: M14
ACHN = tested on: ACHN
CAKI-1 = tested on: CAKI-1
RXF 393 = tested on: RXF 393
CCRF-CEM = tested on: CCRF-CEM
SNB-19 = tested on: SNB-19
SK-MEL-28 = tested on: SK-MEL-28
HT-29 = tested on: HT-29
PC-3 = tested on: PC-3
UACC-257 = tested on: UACC-257
NCI-H23 = tested on: NCI-H23
EKVX = tested on: EKVX
MDA-MB-435 = tested on: MDA-MB-435
SF-268 = tested on: SF-268
786-0 = tested on: 786-0
A498 = tested on: A498
HCC 2998 = tested on: HCC 2998
SK-MEL-2 = tested on: SK-MEL-2
K562 = tested on: K562
OVCAR-4 = tested on: OVCAR-4
DU-145 = tested on: DU-145
UACC-62 = tested on: UACC-62
OVCAR-3 = tested on: OVCAR-3
SR = tested on: SR
NCI-H522 = tested on: NCI-H522
Hs-578T = tested on: Hs-578T
NCI/ADR-RES = tested on: NCI/ADR-RES
T47D = tested on: T47D
HL-60 = tested on: HL-60
HOP-62 = tested on: HOP-62
MDA-MB-231 = tested on: MDA-MB-231
SK-OV-3 = tested on: SK-OV-3
OVCAR-5 = tested on: OVCAR-5
SNB-75 = tested on: SNB-75
COLO 205 = tested on: COLO 205
SF-295 = tested on: SF-295
MCF7 = tested on: MCF7
IGROV-1 = tested on: IGROV-1
SN12C = tested on: SN12C
KM12 = tested on: KM12
LOX IMVI = tested on: LOX IMVI
HOP-92 = tested on: HOP-92
RPMI-8226 = tested on: RPMI-8226
MOLT-4 = tested on: MOLT-4
NCI-H226 = tested on: NCI-H226
U-251 = tested on: U-251

Measured: GI50

CCOC1C=CCCO1 (stereo not drawn)
> 100 µM: HCT-15
inactive: OVCAR-8 > 100 µM | TK-10 > 100 µM | Malme-3M > 100 µM | NCI-H460 > 100 µM | SF-539 > 100 µM | MDA-N > 100 µM | A549 > 100 µM | SK-MEL-5 > 100 µM | HCT-116 > 100 µM | SW-620 > 100 µM | UO-31 2.99 µM | M14 > 100 µM | ACHN > 100 µM | CAKI-1 > 100 µM | RXF 393 > 100 µM | CCRF-CEM > 100 µM | SNB-19 > 100 µM | SK-MEL-28 > 100 µM | HT-29 > 100 µM | PC-3 > 100 µM | UACC-257 > 100 µM | NCI-H23 > 100 µM | EKVX > 100 µM | MDA-MB-435 > 100 µM | SF-268 > 100 µM | 786-0 > 100 µM | A498 > 100 µM | HCC 2998 1.55 µM | SK-MEL-2 > 100 µM | K562 > 100 µM | OVCAR-4 > 100 µM | DU-145 > 100 µM | UACC-62 > 100 µM | OVCAR-3 > 100 µM | SR > 100 µM | NCI-H522 > 100 µM | Hs-578T > 100 µM | NCI/ADR-RES > 100 µM | HL-60 > 100 µM | HOP-62 > 100 µM | MDA-MB-231 > 100 µM | SK-OV-3 > 100 µM | OVCAR-5 > 100 µM | SNB-75 > 100 µM | COLO 205 > 100 µM | SF-295 > 100 µM | MCF7 > 100 µM | IGROV-1 > 100 µM | SN12C > 100 µM | KM12 > 100 µM | LOX IMVI > 100 µM | HOP-92 > 100 µM | RPMI-8226 > 100 µM | MOLT-4 > 100 µM | NCI-H226 > 100 µM
active: T47D 0.701 µM

CC(C)=C=CP(=O)(O)c1ccccc1
> 100 µM: HCT-15
inactive: OVCAR-8 > 100 µM | TK-10 > 100 µM | Malme-3M > 100 µM | NCI-H460 > 100 µM | SF-539 > 100 µM | MDA-N > 100 µM | A549 > 100 µM | SK-MEL-5 > 100 µM | HCT-116 > 100 µM | SW-620 > 100 µM | M14 > 100 µM | ACHN > 100 µM | CAKI-1 > 100 µM | SNB-19 > 100 µM | SK-MEL-28 > 100 µM | HT-29 > 100 µM | PC-3 > 100 µM | UACC-257 > 100 µM | NCI-H23 > 100 µM | EKVX > 100 µM | MDA-MB-435 > 100 µM | SF-268 > 100 µM | 786-0 > 100 µM | A498 > 100 µM | HCC 2998 > 100 µM | SK-MEL-2 > 100 µM | K562 > 100 µM | U-251 > 100 µM | OVCAR-4 > 100 µM | DU-145 > 100 µM | UACC-62 > 100 µM | OVCAR-3 > 100 µM | SR > 100 µM | NCI-H522 > 100 µM | Hs-578T > 100 µM | NCI/ADR-RES > 100 µM | T47D > 100 µM | HL-60 > 100 µM | HOP-62 > 100 µM | SK-OV-3 > 100 µM | OVCAR-5 > 100 µM | SNB-75 > 100 µM | COLO 205 > 100 µM | SF-295 > 100 µM | MCF7 > 100 µM | IGROV-1 > 100 µM | SN12C > 100 µM | KM12 > 100 µM | LOX IMVI > 100 µM | HOP-92 > 100 µM | NCI-H226 > 100 µM

CCOC(=O)c1c(N=P(c2ccccc2)(c2ccccc2)c2ccccc2)nnc(-c2ccccc2)c1-c1ccccc1
> 100 µM: HCT-15
inactive: OVCAR-8 > 100 µM | TK-10 > 100 µM | Malme-3M > 100 µM | NCI-H460 > 100 µM | SF-539 > 100 µM | MDA-N 92.5 µM | A549 > 100 µM | SK-MEL-5 > 100 µM | HCT-116 > 100 µM | SW-620 > 100 µM | UO-31 1.66 µM | M14 > 100 µM | ACHN > 100 µM | RXF 393 61.1 µM | CCRF-CEM > 100 µM | SNB-19 71.3 µM | SK-MEL-28 > 100 µM | HT-29 > 100 µM | PC-3 > 100 µM | UACC-257 > 100 µM | NCI-H23 > 100 µM | EKVX > 100 µM | MDA-MB-435 > 100 µM | SF-268 > 100 µM | 786-0 > 100 µM | A498 25.9 µM | HCC 2998 > 100 µM | SK-MEL-2 43.8 µM | K562 > 100 µM | U-251 > 100 µM | OVCAR-4 > 100 µM | DU-145 > 100 µM | UACC-62 > 100 µM | OVCAR-3 > 100 µM | SR > 100 µM | NCI-H522 > 100 µM | NCI/ADR-RES > 100 µM | T47D > 100 µM | HL-60 > 100 µM | HOP-62 > 100 µM | MDA-MB-231 > 100 µM | SK-OV-3 > 100 µM | OVCAR-5 > 100 µM | SNB-75 6.68 µM | COLO 205 > 100 µM | SF-295 > 100 µM | MCF7 > 100 µM | IGROV-1 > 100 µM | SN12C > 100 µM | KM12 > 100 µM | LOX IMVI > 100 µM | HOP-92 5.52 µM | MOLT-4 > 100 µM | NCI-H226 > 100 µM

CN(C)CCCN1c2ccc([N+](=O)[O-])cc2CCc2cccc([N+](=O)[O-])c21
active: OVCAR-4 0.57 µM
15.5 µM: HCT-15
inactive: OVCAR-8 17 µM | TK-10 11.1 µM | Malme-3M 14.1 µM | NCI-H460 15.5 µM | SF-539 15.2 µM | MDA-N 14.8 µM | A549 16 µM | SK-MEL-5 15.2 µM | HCT-116 14.3 µM | SW-620 16.1 µM | M14 13.7 µM | ACHN 17.6 µM | RXF 393 10.5 µM | CCRF-CEM 16.7 µM | SNB-19 17.5 µM | SK-MEL-28 14.8 µM | HT-29 13.7 µM | PC-3 16.7 µM | UACC-257 14.3 µM | NCI-H23 15.9 µM | EKVX 16.1 µM | MDA-MB-435 14.6 µM | SF-268 15.5 µM | 786-0 13.6 µM | HCC 2998 13.5 µM | SK-MEL-2 18.7 µM | K562 14.8 µM | U-251 15.3 µM | DU-145 17.4 µM | UACC-62 3.37 µM | OVCAR-3 15.4 µM | SR 35.2 µM | NCI-H522 17.7 µM | Hs-578T 14.4 µM | NCI/ADR-RES 13.3 µM | T47D 17.4 µM | HL-60 18.1 µM | HOP-62 13.8 µM | MDA-MB-231 13.1 µM | SK-OV-3 14.8 µM | OVCAR-5 13 µM | SNB-75 13.2 µM | COLO 205 12.8 µM | SF-295 15 µM | IGROV-1 14.9 µM | SN12C 15.1 µM | KM12 15.6 µM | LOX IMVI 16.5 µM | HOP-92 11 µM | RPMI-8226 26.1 µM | MOLT-4 15.8 µM | NCI-H226 13.3 µM

CC(=O)c1sc2c(c1OC(=O)c1cccs1)c(=O)n(-c1ccccc1)c(=S)n2-c1ccccc1
inactive: OVCAR-8 5.01 µM | TK-10 23.7 µM | Malme-3M 2.8 µM | NCI-H460 12.3 µM | SF-539 2.41 µM | MDA-N 5.5 µM | A549 62.5 µM | SK-MEL-5 12.1 µM | HCT-116 16.9 µM | SW-620 22.4 µM | M14 3.24 µM | ACHN 3.54 µM | CAKI-1 30.8 µM | RXF 393 3.86 µM | CCRF-CEM 3.9 µM | SNB-19 12.5 µM | SK-MEL-28 2.99 µM | HT-29 3.21 µM | PC-3 3.63 µM | UACC-257 11.7 µM | NCI-H23 19.3 µM | EKVX 25.1 µM | MDA-MB-435 8.24 µM | SF-268 6.07 µM | 786-0 4.75 µM | A498 4.71 µM | HCC 2998 39.4 µM | K562 35.4 µM | U-251 5.86 µM | OVCAR-4 22 µM | DU-145 26.8 µM | UACC-62 19.9 µM | OVCAR-3 23 µM | Hs-578T 3.66 µM | NCI/ADR-RES 15.2 µM | T47D 15.9 µM | HL-60 26 µM | HOP-62 17 µM | MDA-MB-231 14.4 µM | SK-OV-3 21.9 µM | OVCAR-5 3.29 µM | SNB-75 29.4 µM | COLO 205 18 µM | SF-295 2.62 µM | MCF7 21 µM | IGROV-1 18.6 µM | SN12C 3.94 µM | KM12 23 µM | LOX IMVI 4.84 µM | HOP-92 5.24 µM | RPMI-8226 4.32 µM | MOLT-4 20.3 µM | NCI-H226 3.08 µM
active: NCI-H522 0.359 µM
17.5 µM: HCT-15
